Calls of active or inactive are those of the source. The calls are words filed in the database; no cut-off is given here.
Legend:
[1] = test system: Plasmodium falciparum; assay: Antimalarial activity as 2nd generation ring-stage chloroquine-sensitive Plasmodium falciparum 3D7 after 48 hrs by flow cytometry; format: functional, organism-based; conditions: 3D7, 48 h
[2] = test system: Plasmodium falciparum; assay: Antimalarial activity as 3rd generation ring-stage chloroquine-sensitive Plasmodium falciparum 3D7 after 48 hrs dose then 48 hrs drug-free; format: functional, organism-based; conditions: 3D7, 48 h
[3] = test system: Plasmodium falciparum; assay: Antimalarial activity as 2nd generation ring-stage chloroquine-resistant Plasmodium falciparum W2 after 48 hrs by flow cytometry; format: functional, organism-based; conditions: W2, 48 h
[4] = test system: Plasmodium falciparum; assay: Antimalarial activity as 3rd generation ring-stage chloroquine-resistant Plasmodium falciparum W2 after 48 hrs dose then 48 hrs drug-free; format: functional, organism-based; conditions: W2, 48 h, read-out: IC50
[5] = test system: Plasmodium falciparum; assay: Antimalarial activity as arrested schizont maturation in chloroquine-sensitive Plasmodium falciparum 3D7 infected human erythrocytes after 48 hrs at 100 nM dosed 96 hrs post infection; format: functional, organism-based
[6] = test system: Plasmodium falciparum; assay: Antimalarial activity as segregation of apicoplast in chloroquine-sensitive ACP1-GFP-labeled Plasmodium falciparum 3D7 schizont infected human erythrocytes at 100 nM dosed 96 hrs post infection; format: functional, organism-based
[7] = test system: Plasmodium falciparum; assay: Antimalarial activity as segregation of apicoplast in chloroquine-sensitive Plasmodium falciparum 3D7 progeny infected human erythrocytes at 100 nM dosed 96 hrs post infection; format: functional, organism-based
[8] = test system: Plasmodium falciparum; assay: Antimalarial activity as abnormal apicoplast morphology in chloroquine-sensitive ACP1-GFP-labeled Plasmodium falciparum 3D7 trophozoite infected human erythrocytes at 2xIC50 dosed 96 hrs post infection; format: functional
[9] = test system: Plasmodium falciparum; assay: Antimalarial activity as parasitaemia against chloroquine-sensitive ACP1-GFP-labeled Plasmodium falciparum 3D7 trophozoite infected human erythrocytes at 2xIC50 dosed 96 hrs post infection; format: functional
[10] = Cmax in human at 1000 mg, po once daily for 3 days; format: ADME, organism-based; set-up: dose 1000 mg, route oral; conditions: in vivo
[11] = Tmax in human at 1000 mg, po once daily for 3 days; format: ADME, organism-based; conditions: in vivo
[12] = Half life in human at 1000 mg, po once daily for 3 days; format: ADME, organism-based; conditions: in vivo
[13] = test system: Plasmodium falciparum; assay: Antimalarial activity as 3rd generation parasitaemia against chloroquine-sensitive Plasmodium falciparum 3D7 infected human erythrocytes after 96 hrs at 100 nM dosed 0-12 hrs post infection; format: functional
[14] = test system: Plasmodium falciparum; assay: Antimalarial activity as 3rd generation parasitaemia against chloroquine-sensitive Plasmodium falciparum 3D7 infected human erythrocytes after 96hrs at 100 nM dosed 0-24 hrs post infection; format: functional
[15] = test system: Plasmodium falciparum; assay: Antimalarial activity as 3rd generation parasitaemia against chloroquine-sensitive Plasmodium falciparum 3D7 infected human erythrocytes after 96hrs at 100 nM dosed 0-36 hrs post infection; format: functional
[16] = test system: Plasmodium falciparum; assay: Antimalarial activity as 3rd generation parasitaemia against chloroquine-sensitive Plasmodium falciparum 3D7 infected human erythrocytes after 96 hrs at 100 nM dosed 0-48 hrs post infection; format: functional
[17] = test system: Plasmodium falciparum; assay: Antimalarial activity as 3rd generation parasitaemia against chloroquine-sensitive Plasmodium falciparum 3D7 infected human erythrocytes after 96hrs at 100 nM dosed 12-24 hrs post infection; format: functional
[18] = test system: Plasmodium falciparum; assay: Antimalarial activity as 3rd generation parasitaemia against chloroquine-sensitive Plasmodium falciparum 3D7 infected human erythrocytes assessed after 96hrs at 100 nM dosed 12-36 hrs post infection; format: functional
[19] = test system: Plasmodium falciparum; assay: Antimalarial activity as 3rd generation parasitaemia against chloroquine-sensitive Plasmodium falciparum 3D7 infected human erythrocytes after 96hrs at 100 nM dosed 12-48 hrs post infection; format: functional
[20] = test system: Plasmodium falciparum; assay: Antimalarial activity as 3rd generation parasitaemia against chloroquine-sensitive Plasmodium falciparum 3D7 infected human erythrocytes after 96hrs at 100 nM dosed 24-36 hrs post infection; format: functional
[21] = test system: Plasmodium falciparum; assay: Antimalarial activity as 3rd generation parasitaemia against chloroquine-sensitive Plasmodium falciparum 3D7 infected human erythrocytes after 96hrs at 100 nM dosed 24-48 hrs post infection; format: functional
[22] = test system: Plasmodium falciparum; assay: Antimalarial activity as 3rd generation parasitaemia against chloroquine-sensitive Plasmodium falciparum 3D7 infected human erythrocytes after 96hrs at 100 nM dosed 36-48 hrs post infection; format: functional
[23] = Cmax in patient with kidney disease at 300 mg, po; format: ADME, organism-based; set-up: dose 300 mg, route oral; conditions: human, in vivo
[24] = Tmax in patient with kidney disease at 300 mg, po; format: ADME, organism-based; conditions: human, in vivo
[25] = test system: Homo sapiens; assay: Half life in patient with kidney disease at 300 mg, po; format: ADME, organism-based; conditions: in vivo

For `CC[C@H]1OC(=O)[C@H](C)[C@@H](O[C@H]2C[C@@](C)(OC)[C@@H](O)[C@H](C)O2)[C@H](C)[C@@H](O[C@@H]2O[C@H](C)C[C@H](N(C)C)[C@H]2O)[C@](C)(O)C[C@@H](C)CN(C)[C@H](C)[C@@H](O)[C@]1(C)O` [AZITHROMYCIN], the IC50 [1] was 8.67 µM, the IC50 [2] was 0.0527 µM and the IC50 [3] was 1.46 µM. The IC50 [4] was 0.031 µM, the Activity [5] was “inactive” and the Activity [6] was “Active”. For the same compound, the Activity [7] was “Active”, the Activity [8] was 83.4% and the Activity [9] was 105%. For the same compound, the Cmax [10] was 1.1 µM, the Tmax [11] was 2.4 h and the half-life [12] was 74 h. It also gave an Activity [13] of 91%, an Activity [14] of 61% and an Activity [15] of 30%. For the same compound, the Activity [16] was 17%, the Activity [17] was 59% and the Activity [18] was 28%. For the same compound, the Activity [19] was 18%, the Activity [20] was 79% and the Activity [21] was 68%. For the same compound, the Activity [22] was 113%.

Work on `CCN(CC)CCCC(C)Nc1ccnc2cc(Cl)ccc12` (stereo not given) [CHLOROQUINE] yielded a Cmax [23] of 0.24 µM, a Tmax [24] of 6.6 h and a t1/2 [25] of 240 h.

Source: ChEMBL document CHEMBL1137635, “Multiple antibiotics exert delayed effects against the Plasmodium falciparum apicoplast” (Antimicrob Agents Chemother, 2007)
